How the values were obtained:
[1] = test system: α-Glucosidase (maltase; EC 3.2.1.20); assay: Kinetic assay for α-glucosidase; format: biochemical; conditions: 0%, 0.25%, 0.5% test sugar; maltose 0, 50, 100, 250 mM; 37° C., pH 7
Method: α-Glucosidase (maltase; EC 3.2.1.20), β-NAD, glucose dehydrogenase (EC 1.1.147) and other reagent chemicals were obtained from the Sigma Chemical Co. (St. Louis, Mo.). The kinetic assays were based on the following reaction;
The kinetic assays were all performed in 96-well plates and read at wavelength 320 nm in a SPECTRAmax Plus microtiter plate reader (Molecular Devices Corp., Sunnyvale, Calif.) at 37° C. The software package Softmax™ was used for data analysis. α-Glucosidase (maltase; EC 3.2.1.20), β-NAD, and glucose dehydrogenase (EC 1.1.147) solutions were prepared with 0.1M K2HPO4 (pH 7) buffer. Each well contained 25 μl of 0.13 IU/ml glucose dehydrogenase, 25 μl of 1.65 IU/ml of α-glucosidase, and 20 μl of 12 mM of G-NAD in a total volume of 200 μl with different combinations of sugars and 0.1M K2HPO4 (pH 7) buffer. Absorbance change with time was measured at 320 nm.
In order to determine the role of branching in the inhibition, the Ki values for panose and isomaltotriose were also determined.

S. typhimurium = assay: Growth test with panose and maltooligosaccharides; format: cell-based, Salmonella typhimurium; conditions: combinations of panose and maltooligosaccharides (DP 4 to DP 10), anaerobic, 37° C.
Method: (§1) To further determine whether Leuconostoc IMO acts as a starch-metabolism inhibitor, B. longum and S. typhimurium were grown in different combinations of panose and maltooligosaccharides (from DP 4 to DP 10). As the concentration of panose in the growth medium increased, the growth of S. typhimurium slowed but B. longum growth increased. (FIGS. 11A and 11B, respectively).

B. longum = assay: Growth test with panose and maltooligosaccharides; format: cell-based, Bifidobacterium longum; conditions: combinations of panose and maltooligosaccharides (DP 4 to DP 10), anaerobic, 37° C.
Method: as §1

OC[C@H]1O[C@H](OC[C@H]2O[C@H](OC[C@H]3OC(O)[C@H](O)[C@@H](O)[C@@H]3O)[C@H](O)[C@@H](O)[C@@H]2O)[C@H](O)[C@@H](O)[C@@H]1O (stereo partly shown) [Isomaltotriose, isomaltotriose]
Inhibition of α-glucosidase (maltase) activity [1]: not inhibitory

OC[C@H]1O[C@H](OC[C@H]2O[C@H](O[C@H]3[C@H](O)[C@@H](O)C(O)O[C@@H]3CO)[C@H](O)[C@@H](O)[C@@H]2O)[C@H](O)[C@@H](O)[C@@H]1O (stereo partly shown) [panose]
Inhibition of α-glucosidase (maltase) activity [1]: showed an inhibition | Growth of S. typhimurium as panose concentration in medium increased (S. typhimurium): slowed | Growth of B. longum as panose concentration in medium increased (B. longum): increased

Source: US7772212B2, “Isomaltooligosaccharides to inhibit avian pathogenic intestinal bacteria” (priority 2003, dated 2010)
